The source of these data is ChEMBL document CHEMBL1140940, “Pyrido[2,3-d]pyrimidin-5-ones: a novel class of antiinflammatory macrophage colony-stimulating factor-1 receptor inhibitors” (J Med Chem, 2009).

Where only a bound is given, the exact number is not on record here.

The nature of data set [1]: Oral bioavailability in Sprague-Dawley rat at 10 mg/kg. Type of data set: ADME, organism-based. As to conditions: in vivo.
Data set [2] is filed under the species Rattus norvegicus. Put plainly: Toxicity in rat assessed as induction of mucoid feces. It counts as organism-based. As to conditions: in vivo.
Data set [3] in a line: Volume of distribution at steady state in Sprague-Dawley rat at 2 mg/kg, iv. Type of data set: ADME, organism-based. On the set-up: dose 2 mg/kg, route intravenous. The conditions noted are these: in vivo, read-out: Vdss.
Data set [4] can be described thus: Clearance in Sprague-Dawley rat at 2 mg/kg, iv. Type of data set: ADME, organism-based. Further details: dose 2 mg/kg, route intravenous. As to conditions: in vivo.
Data set [5] can be described thus: Cmax in Sprague-Dawley rat at 10 mg/kg, po. On the set-up: dose 10 mg/kg, route oral. As to conditions: in vivo. Type of data set: ADME, organism-based.
Data set [6] in a line: Half life in Sprague-Dawley rat at 10 mg/kg, po. It counts as ADME, organism-based. The conditions noted are these: in vivo. On the set-up: dose 10 mg/kg, route oral.
The nature of data set [7]: Half life in Sprague-Dawley rat at 2 mg/kg, iv. As to conditions: in vivo. On the set-up: dose 2 mg/kg, route intravenous. Type of data set: ADME, organism-based.
A short description of data set [8]: Metabolic stability in human liver microsomes after 10 mins. Type of data set: ADME, Microsome. As to conditions: read-out: Stability.
Data set [9] can be described thus: Metabolic stability in rat liver microsomes after 10 mins. It counts as ADME, Microsome. As to conditions: read-out: Stability. For orientation: Liver microsomes are a subcellular fraction often used to study metabolism.
The species entered for data set [10] is Rattus norvegicus. Briefly: Toxicity in rat assessed as induction of cold body. It counts as organism-based. As to conditions: in vivo.
The species named for data set [11] is Rattus norvegicus. Briefly: Toxicity in rat assessed as induction of weight loss. Type of data set: organism-based. As to conditions: in vivo.
The target in data set [12] is Proto-oncogene tyrosine-protein kinase Src (Homo sapiens, UniProt P12931). Put plainly: Inhibition of Src by fluorescence polarization competition immunoassay. Background: Fluorescence polarisation rises when a labelled molecule tumbles more slowly, as on binding a larger partner.
Data set [13] has as its target Mast/stem cell growth factor receptor Kit (Homo sapiens, UniProt P10721). Put plainly: Inhibition of KIT by fluorescence polarization competition immunoassay.
Data set [14] deals with High affinity nerve growth factor receptor (Homo sapiens, UniProt P04629). Put plainly: Inhibition of TrkA by fluorescence polarization competition immunoassay.
The next data set concerns the target Insulin receptor (Homo sapiens, UniProt P06213). Put plainly: Inhibition of IRKbeta by fluorescence polarization competition immunoassay.
Data set [15] concerns the target T1, Tyrosine-protein kinase receptor UFO (Homo sapiens, UniProt P30530).
T1 sequence (P30530 whole entry): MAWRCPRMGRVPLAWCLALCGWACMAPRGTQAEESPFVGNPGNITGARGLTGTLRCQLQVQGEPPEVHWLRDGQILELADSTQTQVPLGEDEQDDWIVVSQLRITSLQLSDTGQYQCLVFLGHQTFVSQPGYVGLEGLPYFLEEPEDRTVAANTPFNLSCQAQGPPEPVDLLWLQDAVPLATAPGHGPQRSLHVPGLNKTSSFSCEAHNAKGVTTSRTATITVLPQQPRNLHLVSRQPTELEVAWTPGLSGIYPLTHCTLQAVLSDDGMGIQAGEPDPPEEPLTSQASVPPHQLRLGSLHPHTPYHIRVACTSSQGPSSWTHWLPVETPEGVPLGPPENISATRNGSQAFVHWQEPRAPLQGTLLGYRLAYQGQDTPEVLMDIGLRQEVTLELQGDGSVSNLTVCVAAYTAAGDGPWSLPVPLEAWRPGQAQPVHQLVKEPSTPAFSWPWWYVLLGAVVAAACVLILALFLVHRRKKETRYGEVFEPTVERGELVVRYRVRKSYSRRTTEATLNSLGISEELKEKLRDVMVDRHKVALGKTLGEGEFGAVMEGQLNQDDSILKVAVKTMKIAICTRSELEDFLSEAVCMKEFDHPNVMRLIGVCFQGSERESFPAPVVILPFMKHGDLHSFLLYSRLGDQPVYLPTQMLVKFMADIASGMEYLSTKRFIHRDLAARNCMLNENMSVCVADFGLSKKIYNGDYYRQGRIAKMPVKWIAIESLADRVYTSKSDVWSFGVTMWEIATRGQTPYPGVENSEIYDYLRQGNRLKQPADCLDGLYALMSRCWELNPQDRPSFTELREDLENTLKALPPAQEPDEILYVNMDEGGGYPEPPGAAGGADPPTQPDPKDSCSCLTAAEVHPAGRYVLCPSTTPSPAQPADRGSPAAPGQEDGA
Put plainly: Inhibition of Axl by fluorescence polarization competition immunoassay.

Data set [16] deals with Macrophage colony-stimulating factor 1 receptor (Homo sapiens, UniProt P07333).
Data set [17] deals with T2, Receptor-type tyrosine-protein kinase FLT3 (Homo sapiens, UniProt P36888).
T2 sequence (P36888 whole entry): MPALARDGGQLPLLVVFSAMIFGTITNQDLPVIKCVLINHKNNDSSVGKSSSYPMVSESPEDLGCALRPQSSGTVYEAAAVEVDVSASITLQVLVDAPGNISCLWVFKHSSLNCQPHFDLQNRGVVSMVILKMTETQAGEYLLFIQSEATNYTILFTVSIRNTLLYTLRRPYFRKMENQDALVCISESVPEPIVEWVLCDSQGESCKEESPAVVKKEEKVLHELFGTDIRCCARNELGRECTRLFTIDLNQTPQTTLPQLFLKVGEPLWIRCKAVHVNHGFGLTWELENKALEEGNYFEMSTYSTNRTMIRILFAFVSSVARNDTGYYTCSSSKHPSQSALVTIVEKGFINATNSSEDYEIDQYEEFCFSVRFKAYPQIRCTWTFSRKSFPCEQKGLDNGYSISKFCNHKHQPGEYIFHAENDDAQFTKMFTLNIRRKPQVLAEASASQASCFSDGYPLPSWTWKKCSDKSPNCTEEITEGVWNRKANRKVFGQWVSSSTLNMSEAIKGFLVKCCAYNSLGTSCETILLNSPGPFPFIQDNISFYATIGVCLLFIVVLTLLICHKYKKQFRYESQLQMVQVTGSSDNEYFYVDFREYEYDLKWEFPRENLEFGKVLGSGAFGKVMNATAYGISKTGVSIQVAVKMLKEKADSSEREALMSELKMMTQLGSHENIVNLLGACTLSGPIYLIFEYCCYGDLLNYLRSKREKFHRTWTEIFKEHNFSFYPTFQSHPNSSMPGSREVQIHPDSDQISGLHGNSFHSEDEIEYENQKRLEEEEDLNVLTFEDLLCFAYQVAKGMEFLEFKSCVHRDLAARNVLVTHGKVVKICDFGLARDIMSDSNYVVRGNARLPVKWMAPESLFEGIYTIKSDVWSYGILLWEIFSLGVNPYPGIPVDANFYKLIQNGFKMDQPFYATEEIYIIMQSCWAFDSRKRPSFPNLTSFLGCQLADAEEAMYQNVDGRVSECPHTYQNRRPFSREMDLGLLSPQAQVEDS
Briefly: Inhibition of FLT3 by fluorescence polarization competition immunoassay.

Data set [18] addresses Platelet-derived growth factor receptor beta (Homo sapiens, UniProt P09619). Briefly: Inhibition of PDGFRbeta by fluorescence polarization competition immunoassay.

Chain of Macrophage colony-stimulating factor 1 receptor (P07333 whole entry): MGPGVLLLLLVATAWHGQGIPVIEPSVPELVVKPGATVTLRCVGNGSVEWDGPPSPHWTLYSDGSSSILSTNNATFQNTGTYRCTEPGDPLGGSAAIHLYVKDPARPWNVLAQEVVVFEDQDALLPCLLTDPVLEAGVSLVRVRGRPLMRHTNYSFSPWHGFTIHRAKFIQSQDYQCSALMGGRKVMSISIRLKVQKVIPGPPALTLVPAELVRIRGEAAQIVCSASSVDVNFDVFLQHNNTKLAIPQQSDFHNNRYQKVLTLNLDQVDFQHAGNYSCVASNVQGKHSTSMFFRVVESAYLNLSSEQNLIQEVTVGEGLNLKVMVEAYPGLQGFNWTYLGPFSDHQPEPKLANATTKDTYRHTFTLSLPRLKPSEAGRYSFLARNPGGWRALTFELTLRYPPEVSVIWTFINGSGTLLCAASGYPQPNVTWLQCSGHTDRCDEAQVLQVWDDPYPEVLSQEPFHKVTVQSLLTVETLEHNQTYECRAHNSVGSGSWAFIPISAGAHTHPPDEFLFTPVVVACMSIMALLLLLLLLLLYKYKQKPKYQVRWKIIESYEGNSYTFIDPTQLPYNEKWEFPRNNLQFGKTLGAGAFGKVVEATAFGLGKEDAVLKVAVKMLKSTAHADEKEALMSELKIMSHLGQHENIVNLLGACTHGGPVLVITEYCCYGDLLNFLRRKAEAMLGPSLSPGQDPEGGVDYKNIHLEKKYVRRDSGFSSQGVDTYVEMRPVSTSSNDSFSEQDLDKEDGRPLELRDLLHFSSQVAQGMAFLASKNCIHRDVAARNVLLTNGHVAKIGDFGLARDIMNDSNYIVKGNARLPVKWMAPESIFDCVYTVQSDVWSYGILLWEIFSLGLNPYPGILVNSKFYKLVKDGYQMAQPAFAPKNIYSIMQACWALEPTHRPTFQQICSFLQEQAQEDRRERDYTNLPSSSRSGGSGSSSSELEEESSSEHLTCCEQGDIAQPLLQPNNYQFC
Chain of High affinity nerve growth factor receptor (P04629 whole entry): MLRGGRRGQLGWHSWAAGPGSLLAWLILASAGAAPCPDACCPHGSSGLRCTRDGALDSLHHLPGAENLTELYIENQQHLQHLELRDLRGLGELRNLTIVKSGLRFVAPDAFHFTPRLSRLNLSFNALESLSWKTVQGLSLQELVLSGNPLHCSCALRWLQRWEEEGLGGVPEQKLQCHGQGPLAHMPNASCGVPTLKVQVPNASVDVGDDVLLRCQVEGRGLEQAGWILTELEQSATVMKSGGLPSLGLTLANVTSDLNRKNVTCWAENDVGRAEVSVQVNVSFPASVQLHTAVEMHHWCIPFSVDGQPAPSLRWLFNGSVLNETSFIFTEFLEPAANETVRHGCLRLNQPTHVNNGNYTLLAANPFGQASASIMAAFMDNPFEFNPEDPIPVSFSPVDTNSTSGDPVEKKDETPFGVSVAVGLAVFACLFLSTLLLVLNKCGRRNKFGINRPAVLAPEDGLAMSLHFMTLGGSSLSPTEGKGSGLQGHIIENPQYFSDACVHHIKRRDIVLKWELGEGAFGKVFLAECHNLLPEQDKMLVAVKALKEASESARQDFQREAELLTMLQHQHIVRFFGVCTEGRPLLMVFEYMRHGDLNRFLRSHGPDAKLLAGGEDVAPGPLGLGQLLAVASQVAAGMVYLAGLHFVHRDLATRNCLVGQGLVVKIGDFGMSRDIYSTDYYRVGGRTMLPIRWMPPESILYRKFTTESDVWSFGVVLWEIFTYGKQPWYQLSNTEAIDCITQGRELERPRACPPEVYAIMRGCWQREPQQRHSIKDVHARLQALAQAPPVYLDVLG
Chain of Mast/stem cell growth factor receptor Kit (P10721 whole entry): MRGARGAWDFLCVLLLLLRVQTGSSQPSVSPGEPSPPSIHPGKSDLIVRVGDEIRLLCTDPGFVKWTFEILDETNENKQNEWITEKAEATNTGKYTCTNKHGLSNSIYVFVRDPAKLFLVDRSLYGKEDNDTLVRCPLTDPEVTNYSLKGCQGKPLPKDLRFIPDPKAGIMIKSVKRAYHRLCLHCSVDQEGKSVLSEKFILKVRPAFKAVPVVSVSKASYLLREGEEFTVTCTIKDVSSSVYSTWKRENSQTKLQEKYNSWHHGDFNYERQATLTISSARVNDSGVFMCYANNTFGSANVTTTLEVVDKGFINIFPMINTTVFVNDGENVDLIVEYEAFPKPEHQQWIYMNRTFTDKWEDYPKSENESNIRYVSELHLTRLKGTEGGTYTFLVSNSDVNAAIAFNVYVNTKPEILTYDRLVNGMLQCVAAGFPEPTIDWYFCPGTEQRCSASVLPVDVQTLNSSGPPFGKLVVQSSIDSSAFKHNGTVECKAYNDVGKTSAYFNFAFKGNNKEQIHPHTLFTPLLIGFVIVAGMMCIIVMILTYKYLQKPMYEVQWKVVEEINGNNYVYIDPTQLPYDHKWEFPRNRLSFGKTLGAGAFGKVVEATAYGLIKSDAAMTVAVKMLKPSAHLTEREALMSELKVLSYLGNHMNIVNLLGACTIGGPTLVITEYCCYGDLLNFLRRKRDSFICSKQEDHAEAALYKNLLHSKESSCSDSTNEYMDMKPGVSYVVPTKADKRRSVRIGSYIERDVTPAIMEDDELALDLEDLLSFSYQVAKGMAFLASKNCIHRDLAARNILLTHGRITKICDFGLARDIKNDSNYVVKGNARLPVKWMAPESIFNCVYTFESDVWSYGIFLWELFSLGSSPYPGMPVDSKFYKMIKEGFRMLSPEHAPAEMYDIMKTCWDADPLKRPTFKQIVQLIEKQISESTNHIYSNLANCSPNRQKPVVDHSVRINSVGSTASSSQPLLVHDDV
Chain of Proto-oncogene tyrosine-protein kinase Src (P12931 2-536 limits assumed): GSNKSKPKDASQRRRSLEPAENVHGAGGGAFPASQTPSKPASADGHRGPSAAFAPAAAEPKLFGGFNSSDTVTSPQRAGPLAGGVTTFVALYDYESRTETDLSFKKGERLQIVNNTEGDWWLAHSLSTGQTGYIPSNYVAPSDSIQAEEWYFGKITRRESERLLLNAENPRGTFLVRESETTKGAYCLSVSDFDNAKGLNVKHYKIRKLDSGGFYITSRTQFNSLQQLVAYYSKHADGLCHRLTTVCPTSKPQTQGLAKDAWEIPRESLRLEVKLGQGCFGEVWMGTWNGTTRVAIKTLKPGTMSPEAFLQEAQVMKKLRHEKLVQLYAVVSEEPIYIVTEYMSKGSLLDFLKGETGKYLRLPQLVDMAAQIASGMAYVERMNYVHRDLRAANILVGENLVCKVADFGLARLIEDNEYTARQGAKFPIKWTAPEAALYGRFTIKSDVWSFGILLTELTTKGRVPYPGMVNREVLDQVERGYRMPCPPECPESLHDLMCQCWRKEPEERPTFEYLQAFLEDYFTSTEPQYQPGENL
Chain of Insulin receptor (P06213 28-758 limits assumed): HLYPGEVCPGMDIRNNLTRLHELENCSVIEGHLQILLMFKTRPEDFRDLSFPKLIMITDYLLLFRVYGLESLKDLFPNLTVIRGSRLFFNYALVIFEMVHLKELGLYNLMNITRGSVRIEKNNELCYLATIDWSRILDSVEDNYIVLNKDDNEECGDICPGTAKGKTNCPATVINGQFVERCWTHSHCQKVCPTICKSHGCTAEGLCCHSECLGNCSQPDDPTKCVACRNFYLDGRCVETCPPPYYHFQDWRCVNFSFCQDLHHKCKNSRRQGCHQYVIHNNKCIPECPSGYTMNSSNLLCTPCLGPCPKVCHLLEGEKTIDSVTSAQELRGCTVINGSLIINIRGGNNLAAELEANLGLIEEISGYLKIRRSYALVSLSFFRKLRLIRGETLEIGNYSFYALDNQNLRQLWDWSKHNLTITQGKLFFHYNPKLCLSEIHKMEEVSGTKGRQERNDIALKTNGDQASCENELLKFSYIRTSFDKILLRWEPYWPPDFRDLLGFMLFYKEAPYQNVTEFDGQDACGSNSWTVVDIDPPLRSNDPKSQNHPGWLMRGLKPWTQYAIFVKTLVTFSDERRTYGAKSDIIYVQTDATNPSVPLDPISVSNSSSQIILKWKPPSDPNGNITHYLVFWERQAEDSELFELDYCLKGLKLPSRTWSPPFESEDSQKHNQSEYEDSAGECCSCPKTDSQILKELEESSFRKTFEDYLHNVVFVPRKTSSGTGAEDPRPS
Chain of Insulin receptor (P06213 763-1382 limits assumed): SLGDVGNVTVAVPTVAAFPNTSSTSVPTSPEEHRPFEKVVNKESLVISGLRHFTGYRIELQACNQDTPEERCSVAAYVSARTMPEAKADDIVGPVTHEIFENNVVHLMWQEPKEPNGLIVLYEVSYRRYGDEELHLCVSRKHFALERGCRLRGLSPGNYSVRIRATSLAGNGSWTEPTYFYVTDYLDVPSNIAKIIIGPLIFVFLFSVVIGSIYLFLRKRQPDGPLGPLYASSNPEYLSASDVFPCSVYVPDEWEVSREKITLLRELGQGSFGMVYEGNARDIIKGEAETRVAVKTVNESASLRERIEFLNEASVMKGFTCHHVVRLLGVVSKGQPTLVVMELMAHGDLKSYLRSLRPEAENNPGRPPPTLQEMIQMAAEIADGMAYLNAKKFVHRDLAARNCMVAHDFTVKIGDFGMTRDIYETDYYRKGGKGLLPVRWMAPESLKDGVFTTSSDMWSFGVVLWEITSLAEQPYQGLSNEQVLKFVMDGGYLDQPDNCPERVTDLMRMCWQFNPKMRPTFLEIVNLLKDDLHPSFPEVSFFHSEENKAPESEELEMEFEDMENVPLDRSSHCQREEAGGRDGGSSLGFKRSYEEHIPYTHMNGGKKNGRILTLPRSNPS

Usually clearance stands for the rate of elimination divided by the concentration. The Cmax is the highest concentration seen after dosing. For orientation: half-life means the time in which the quantity being followed falls by half. A high value points to slow decline. Regarding `CCc1ccc(-n2cc(C(=O)NOC)c(=O)c3cnc(Nc4ccc(C5CCN(C)CC5)cc4)nc32)cc1`, the bioavailability in data set [1] came to 103%. In addition, the Activity entry in the data set filed under Rattus norvegicus [2], in the data set listed under Rattus norvegicus [10] and in the data set filed under Rattus norvegicus [11] was “Non-toxic” throughout. The Vd in data set [3] was 5.9 L/kg. Moreover, the clearance in data set [4] came out at 8 mL/min/kg. The compound further gave a peak concentration (Cmax) in [5] of 3.4 µM. The half-life in data set [6] is 8.1 h; in [7], 8 h. Also, the values for the remaining at 10 min in data set [8] and in data set [9] were 75% and 96%, respectively.

One may read the IC50 as the concentration that gives 50% inhibition. The low end stands for higher potency, the high end for lower potency. For the compound `CONC(=O)c1cn(-c2ccc3c(c2)CCC3)c2nc(Nc3ccc(CCN4CCN(C)CC4)cc3)ncc2c1=O`, the bioavailability in data set [1] was 57%. In addition, the IC50 in [12] was 1500 nM; in data set [13] it was 6 nM; in data set [14], > 500 nM; on Insulin receptor, 19800 nM; in data set [15] it was > 500 nM; in data set [16], 0.7 nM. Besides, the IC50 is 36 nM in data set [17] and 5300 nM in [18]. In data set [3], the Vd is 1.5 L/kg. Also, the clearance in data set [4] stood at 4 mL/min/kg. For the same compound, the Cmax in data set [5] stood at 2.7 µM. For the same compound, the half-life in [6] is 6.5 h; in data set [7] it was 4.5 h. In addition, in data set [9], the remaining at 10 min came to 78%.
